Laboratory results reported in patent US20080176266A1, “Biomarkers Of Metabolic Responses To Hepatotoxicants And Carcinogens” (priority 2006, published 2008).
Marks after values point to notes of the source that are not given here.

Legend:
[1] = system: DNA; settings: short term treatment; Gonzalez et al. (1998); cited from earlier work
[2] = system: rats; settings: cited from earlier work
[3] = system: Sprague Dawley rats; assay: Liver histology; format: in vivo; settings: rat liver
Experimental: […] Six rats per dose group were euthanized at 6 and 24 h post-dose. Serum (for metabolomics and alanine aminotransferase (ALT), and aspartate aminotransferase (AST)), liver lobes (for histology), and frozen liver and urine (for metabolomics) were collected. Six rats per dose group were placed in metabolism cages for urine collection at −24-0 h, 0-6 h, 6-24 h and 24-48 h. These rats were removed from metabolism cages at 48 h post-dose, for blood and liver collection. The detailed study design is set forth in Chart 1.

[4] = system: Sprague Dawley rats; assay: Liver enzymes ALT and AST in serum; format: in vivo; settings: rat serum, 0, 50, 250 mg/kg, any groups
Experimental: In detail, a single dose of clofibrate or vehicle was administered by gavage (0, 50 and 250 mg/kg) to groups of 18 male Sprague Dawley rats at 11 wks age. Six rats per dose group were euthanized at 6 and 24 h post-dose. Serum (for metabolomics and alanine aminotransferase (ALT), and aspartate aminotransferase (AST)), liver lobes (for histology), and frozen liver and urine (for metabolomics) were collected. Six rats per dose group were placed in metabolism cages for urine collection at −24-0 h, 0-6 h, 6-24 h and 24-48 h. These rats were removed from metabolism cages at 48 h post-dose, for blood and liver collection. The detailed study design is set forth in Chart 1.

[5] = system: Sprague Dawley rats; assay: Liver-to-body weight ratio (LBR), F-tests; format: in vivo, rat; settings: Day 14 animals, with time and with dose, not the interaction of dose-time
Text: Liver hypertrophy is a well-known clinical end-point of chronic clofibrate exposure, however, the biomarkers of this pathology are unknown. Using the measurements of the liver weight and the body weight of the animals, we calculated the liver-to-body weight ratio (LBR). […] Second, we discovered the components that could classify the LBR in the liver and in the serum. This was accomplished out using a step wise regression method with the LBR as the response variable and all of the components as independent variables. After an iterative selection procedure, 29 of the best components from the serum and the liver were used to build the reduced model given below: […]

[6] = system: Sprague Dawley rats; assay: GC-MS metabolomics of liver from rats exposed to clofibrate; format: in vivo; settings: rat liver, 250 mg/kg/d
Experimental: In one embodiment, the hepatotoxicant is clofibrate. Clofibrate or vehicle is administered orally (0, 50, 250 mg/kg/d) to groups of 6 rats and serum and livers are collected 6 and 24 h after either a single or 14 daily doses. Global biochemical profiles are determined by LC-MS and GC-MS and components highly perturbed by clofibrate exposure are identified by the methods described above. […] Rats (6 per group) were dosed by gavage with vehicle, 50 or 250 mg/kg clofibrate per day for 1 (single dose) or 14 days (repeated dose). These groups are referred to as “day 1” and ‘day 14 (d 1 and d14).” Liver and serum were collected at 6 and 24 h post-dosing in the day 1 and day 14. In detail, a single dose of clofibrate or vehicle was administered by gavage (0, 50 and 250 mg/kg) to groups of 18 male Sprague Dawley rats at 11 wks age. Six rats per dose group were euthanized at 6 and 24 h post-dose. Serum (for metabolomics and alanine aminotransferase (ALT), and aspartate aminotransferase (AST)), liver lobes (for histology), and frozen liver and urine (for metabolomics) were collected. Six rats per dose group were placed in metabolism cages for urine collection at −24-0 h, 0-6 h, 6-24 h and 24-48 h. These rats were removed from metabolism cages at 48 h post-dose, for blood and liver collection. The detailed study design is set forth in Chart 1. For GC-MS, liver was extracted with CHCl3:MeOH mixtures. Organic residue was derivitized with BSTFA and dried aqueous residues were derivitized with methoxyamine HCl/BSTFA. Samples were injected with 10:1 split into an Agilent 6890 gas chromatograph. A Leco Pegasus III TOFMS was used. Ions were generated at 70 eV with 3.2 mA ionization current; 25 spectra/s were recorded for 60-800 m/z. Acceleration voltage activated after 180 s solvent delay. Detector voltage: 1750 V. Data were processed with Leco ChromaTOF software. Automatic peak detection and mass spectrum deconvolution were performed using 1.33 s peak width. Peaks with S/N less than 20 were rejected. Component identification was accomplished with the NIST 98' MS library and, in some cases, verified with standards. Components with similarity greater than 600 were used for analysis.

In the case of CCOC(=O)C(C)(C)Oc1ccc(Cl)cc1 [clofibrate, ethyl-p-chloro-phenoxyisobutyrate], the DNA adducts [1] is given as “no DNA adducts have been observed”, the “Microscopic changes to liver” value ([2]; 24 h after a single exposure) is given as “no microscopic changes” and the Liver histopathology ([2]; after 2 weeks) is given as “induced hypertrophy”. For the same compound, the “Histology: hepatocellular cytologic alterations” value ([3]; after 14 doses at 250 mg/kg/day, all time points) was “hepatocellular cytologic alterations (indicating loss of glycogen and eosinophilic granular cytoplasm) were noted”, the “Histology: hepatocellular mitotic figures” value ([3]; after a single dose, 50 to 250 mg/kg) was “dose related increase and severity of hepatocellular mitotic figures” and the ALT [4] was “not elevated”. For the same compound, the AST [4] was “not elevated”, the “Liver-to-body weight ratio (LBR)” value [5] was “significantly increased” and the “Hepatic 1-Mono linoleoylglycerol (fold change)” value ([6]; Day 1, 6 H) was 1.11*** fold change. The “Hepatic 1-Mono oleoylglycerol (fold change)” value ([6]; Day 1, 6 H) was 0.98* fold change, the “Hepatic 1-Mono palmitoylglycerol (fold change)” value ([6]; Day 1, 6 H) was 0.91** fold change and the “Hepatic 2-Mono oleoylglycerol (fold change)” value ([6]; Day 1, 6 H) was 1.12*** fold change. The “Hepatic Cholesterol (fold change)” value ([6]; Day 1, 6 H) was 1.34*** fold change, the “Hepatic Glucose (aq) (fold change)” value ([6]; Day 1, 6 H) was 0.29* fold change and the “Hepatic Glycine (fold change)” value ([6]; Day 1, 6 H) was 2.69** fold change. The “Hepatic Lactic acid (fold change)” value ([6]; Day 1, 6 H) was 1.56** fold change, the “Hepatic Linoleic acid (fold change)” value ([6]; Day 1, 6 H) was 0.97* fold change and the “Hepatic Palmitate (fold change)” value ([6]; Day 1, 6 H) was 0.95*** fold change. For the same compound, the “Hepatic Stearate (fold change)” value ([6]; Day 1, 6 H) was 1.07* fold change, the “Hepatic 1-Mono stearoylglycerol (fold change)” value ([6]; Day 1, 24 H) was 17.14** fold change and the “Hepatic Glycerol 1(3)-phosphate (fold change)” value ([6]; Day 1, 24 H) was 2.56* fold change. For the same compound, the “Hepatic Glycine (fold change)” value ([6]; Day 1, 24 H) was 3.42* fold change, the “Hepatic L-Aspartic acid (fold change)” value ([6]; Day 1, 24 H) was 27.88*** fold change and the “Hepatic Lactic acid (fold change)” value ([6]; Day 1, 24 H) was 4.41* fold change. For the same compound, the “Hepatic Succinic acid (Butanedioic acid) (fold change)” value ([6]; Day 1, 24 H) was 17.05** fold change, the “Hepatic l-Alanine (fold change)” value ([6]; Day 1, 24 H) was 4.74* fold change and the “Hepatic 1-Mono palmitoylglycerol (fold change)” value ([6]; Day 14, 6 H) was 0.04** fold change. The “Hepatic 1-Mono stearoylglycerol (fold change)” value ([6]; Day 14, 6 H) was 0.22** fold change, the “Hepatic 2-Mono stearoylglycerol (fold change)” value ([6]; Day 14, 6 H) was 0.41* fold change and the “Hepatic Arachidonic acid (fold change)” value ([6]; Day 14, 6 H) was 0.22*** fold change. The “Hepatic Cholesterol (fold change)” value ([6]; Day 14, 6 H) was 1.87** fold change, the “Hepatic Malate (fold change)” value ([6]; Day 14, 6 H) was 0.1** fold change and the “Hepatic Palmitate (fold change)” value ([6]; Day 14, 6 H) was 0.72** fold change. For the same compound, the “Hepatic β-Sitosterol (fold change)” value ([6]; Day 14, 6 H) was 0.37** fold change, the “Hepatic Cholesterol (fold change)” value ([6]; Day 14, 24 H) was 0.69** fold change and the “Hepatic Docosahexaenoic acid (fold change)” value ([6]; Day 14, 24 H) was 0.58* fold change. For the same compound, the “Hepatic Glucose (aq) (fold change)” value ([6]; Day 14, 24 H) was 0.39** fold change, the “Hepatic Malate (fold change)” value ([6]; Day 14, 24 H) was 0.33** fold change and the “Hepatic β-Sitosterol (fold change)” value ([6]; Day 14, 24 H) was 0.46* fold change. The “Clofibrate metabolite Propanoic acid, 2-(4-chlorophenoxy)-2-methyl- detected in liver” value ([6]; GC-MS) was “(not present in control)”.
